Our source for the Urine volume, IC50 and inhibition values is ChEMBL document CHEMBL1136085, “Structure-activity study of novel tricyclic benzazepine arginine vasopressin antagonists” (Bioorg Med Chem Lett, 2003).

In test [1] the test system is Rattus norvegicus. The experiment in a line: Aquaretic effect was measured by the amount of urine collected after 4 hr at a dose of 30 mg/kg ip in 6 Dawley rats. In kind it is functional. Conditions: route intraperitoneal.
Test [2] relates to Rattus norvegicus. The experiment in a line: Aquaretic effect was measured by the amount of urine collected after 4 hr at a dose of 10 mg/kg ip in 2 Dawley rats. The conditions noted are these: route intraperitoneal. In kind it is functional.
In a further test the target is Vasopressin V2 receptor (Rattus norvegicus, UniProt Q00788). Kind of test: Inhibition of [3H]AVP binding to Dawley rat kidney medullary vasopressin V2 receptor.
For test [3], the target named is T1, Vasopressin V1a receptor (Rattus norvegicus, UniProt P30560). The experiment in a line: Inhibition of [3H]AVP binding to Dawley rat hepatic vasopressin V1a receptor.
Test [4] addresses Vasopressin V2 receptor (Rattus norvegicus) (UniProt Q00788). The experiment in a line: Compound was tested for the inhibition of [3H]AVP binding to Dawley rat kidney medullary Vasopressin V2 receptor. The conditions noted are these: concentration not given here.
For test [5], the target named is T1, Vasopressin V1a receptor. Kind of test: Compound was tested for the inhibition of [3H]AVP binding to Dawley […].
Test [6] concerns the target Vasopressin V1a receptor (Rattus norvegicus) (UniProt P30560). The experiment in a line: Compound was tested for the inhibition of [3H]AVP binding to Dawley rat hepatic Vasopressin V1a receptor. The conditions noted are these: concentration not given here.

Molecules are shown by their SMILES.

Sequence of Vasopressin V2 receptor (Q00788 whole entry): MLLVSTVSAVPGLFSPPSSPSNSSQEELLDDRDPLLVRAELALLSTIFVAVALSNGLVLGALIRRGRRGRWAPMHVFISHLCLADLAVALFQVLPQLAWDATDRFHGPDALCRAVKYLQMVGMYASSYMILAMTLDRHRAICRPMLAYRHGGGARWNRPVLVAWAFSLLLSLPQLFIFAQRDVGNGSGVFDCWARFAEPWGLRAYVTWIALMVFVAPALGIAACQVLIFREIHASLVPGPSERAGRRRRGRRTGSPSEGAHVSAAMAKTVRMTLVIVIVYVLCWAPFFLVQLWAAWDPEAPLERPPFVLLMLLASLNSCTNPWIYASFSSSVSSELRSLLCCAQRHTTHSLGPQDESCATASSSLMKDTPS
T1 sequence (P30560 whole entry): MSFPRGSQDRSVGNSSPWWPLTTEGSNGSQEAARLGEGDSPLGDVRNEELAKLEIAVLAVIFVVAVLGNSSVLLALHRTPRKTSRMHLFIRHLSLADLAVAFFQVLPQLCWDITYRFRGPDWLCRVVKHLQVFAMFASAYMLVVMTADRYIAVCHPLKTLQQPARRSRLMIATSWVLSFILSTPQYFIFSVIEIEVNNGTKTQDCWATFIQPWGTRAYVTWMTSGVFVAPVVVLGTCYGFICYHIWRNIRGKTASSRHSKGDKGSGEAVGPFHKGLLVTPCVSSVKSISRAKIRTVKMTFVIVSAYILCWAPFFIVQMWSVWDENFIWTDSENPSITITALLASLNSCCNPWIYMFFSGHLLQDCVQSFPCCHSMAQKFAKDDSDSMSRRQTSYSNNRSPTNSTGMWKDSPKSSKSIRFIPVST
Sequence of Vasopressin V2 receptor (Rattus norvegicus) (Q00788 whole entry): as the sequence (Q00788 whole entry) above
Sequence of Vasopressin V1a receptor (Rattus norvegicus) (P30560 whole entry, looked up): as the sequence (P30560 whole entry) above

Consider `Cc1ccccc1C(=O)Nc1ccc(C(=O)N2Cc3ccccc3Nc3ccccc32)cc1`, for which, in the test on Rattus norvegicus [1], the Urine volume was found to be 7.4 ml 4hr-1.

Take `Cc1ccc(F)cc1C(=O)Nc1ccc(C(=O)N2Cc3cccn3Cc3ccccc32)c(Cl)c1` [LIXIVAPTAN]: the Urine volume with Rattus norvegicus [2] stood at 22 ml 4hr-1.

Usually IC50 stands for the concentration that inhibits the measured activity by half. Higher therefore signals weaker potency. For the compound `Cc1cccc(C(=O)Nc2ccc(C(=O)N3Cc4cccn4Cc4ccccc43)cc2)c1C`, the IC50 amounted to 13 nM on Vasopressin V2 receptor and 240 nM at Vasopressin V1a receptor [3].

Consider `Cc1ccccc1C(=O)Nc1ccc(C(=O)N2Cc3ccccc3Oc3ccccc32)cc1`, for which the IC50 was 1700 nM on Vasopressin V2 receptor and 1500 nM at Vasopressin V1a receptor [3].

Consider `O=C(Nc1ccc(C(=O)N2Cc3cccn3Cc3ccccc32)cc1)c1ccccc1O`, for which the IC50 at Vasopressin V2 receptor is 540 nM.

As for `O=C(Nc1ccc(C(=O)N2Cc3cccn3Cc3ccccc32)cc1)c1ccccc1Br`, the figures for the IC50 on Vasopressin V2 receptor and on Vasopressin V1a receptor [3] were 7 nM and 2 nM, respectively.

With `O=C(Nc1ccc(C(=O)N2Cc3cccn3Cc3ccccc32)cc1)c1ccc(F)cc1Cl`, the IC50 on Vasopressin V2 receptor was determined as 4 nM; at Vasopressin V1a receptor [3], 7 nM.

In turn, `O=C(Nc1ccc(C(=O)N2Cc3cccn3Cc3ccccc32)cc1)c1ccccc1Cl` returned a Urine volume in the test on Rattus norvegicus [2] of 12.4 ml 4hr-1.

Take `Cc1ccccc1C(=O)Nc1ccc(C(=O)N2c3ccccc3CCc3ccccc32)cc1`: the IC50 at Vasopressin V2 receptor came out at 860 nM; on Vasopressin V1a receptor [3] it was 2500 nM.

In the case of `Cc1ccc(F)cc1C(=O)Nc1ccc(C(=O)N2Cc3cccn3Cc3ccccc32)cc1`, the Urine volume in the test on Rattus norvegicus [2] was determined as 21.8 ml 4hr-1. For the same compound, the IC50 at Vasopressin V2 receptor came to 1.5 nM.

By inhibition is commonly meant the drop in the measured response relative to a control, in per cent. Consider `Cc1ccccc1C(=O)Nc1ccc(C(=O)N2Cc3ccccc3CCc3ccccc32)cc1`, for which the IC50 at Vasopressin V2 receptor and on Vasopressin V1a receptor [5] was 50000 nM each time. Besides, the inhibition came out at 80% in test [4] and 60% in test [6].
